Measured values from publication PMC2978510 (Bioorganic & medicinal chemistry, 2010).

Experiments:
[1] = mouse; ref [28]; cited from earlier work
[2] = tested on: CB2 receptor; conditions: cited from earlier work; for Ki: read-out: Affinity for the CB2 receptor, Merck Frosst group, ref [29]
[3] = tested on: CB1 receptor; conditions: Merck Frosst group; ref [29]; cited from earlier work
[4] = target: T1, CB2 receptor (Homo sapiens, UniProt P34972); conditions: ref [31], cited from earlier work
[5] = target: CB1 receptor (Rattus norvegicus, UniProt P20272); conditions: read-out: Ki (nM) CB1; mean ± SEM; ref [31]; cited from earlier work
Chain of CB1 receptor (Rattus norvegicus, UniProt P20272) (P20272 whole entry): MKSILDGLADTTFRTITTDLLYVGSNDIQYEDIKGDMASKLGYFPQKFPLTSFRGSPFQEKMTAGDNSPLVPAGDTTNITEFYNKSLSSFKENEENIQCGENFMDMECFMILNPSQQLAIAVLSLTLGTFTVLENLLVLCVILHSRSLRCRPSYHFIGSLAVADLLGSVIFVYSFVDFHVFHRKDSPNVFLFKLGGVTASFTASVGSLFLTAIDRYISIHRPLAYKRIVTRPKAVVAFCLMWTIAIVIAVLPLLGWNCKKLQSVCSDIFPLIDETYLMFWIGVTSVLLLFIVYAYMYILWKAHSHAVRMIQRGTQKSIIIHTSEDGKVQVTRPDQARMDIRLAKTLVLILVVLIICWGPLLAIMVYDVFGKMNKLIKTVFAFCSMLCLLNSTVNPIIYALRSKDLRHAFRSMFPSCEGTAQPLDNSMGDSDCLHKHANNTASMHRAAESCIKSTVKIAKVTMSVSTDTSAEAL

[6] = target: T1, CB2 receptor; experiment: GTPγS binding in CHO cells stably expressing the human CB2 receptor; assay type: biochemical; conditions: for Efficacy at the CB2 receptor: GTPγS binding, relative to CP-55,940

T1 sequence (P34972 whole entry): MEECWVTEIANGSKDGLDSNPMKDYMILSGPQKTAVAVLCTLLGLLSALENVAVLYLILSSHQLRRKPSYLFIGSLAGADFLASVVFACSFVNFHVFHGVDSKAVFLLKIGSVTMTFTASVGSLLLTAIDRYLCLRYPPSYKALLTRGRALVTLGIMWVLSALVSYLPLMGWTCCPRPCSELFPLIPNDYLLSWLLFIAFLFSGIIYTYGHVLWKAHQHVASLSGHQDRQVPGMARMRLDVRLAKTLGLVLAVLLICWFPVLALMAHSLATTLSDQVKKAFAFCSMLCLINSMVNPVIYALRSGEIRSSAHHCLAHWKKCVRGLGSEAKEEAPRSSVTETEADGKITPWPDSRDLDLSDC

CCCCCCC(C)(C)c1ccc2c(c1)OC(C)(C)[C@@H]1CC=C(CO)C[C@@H]21 [Compound 2, 11-hydroxy-3-(1′,1′-dimethylheptyl)-1-deoxy-Δ^8-THC]
Potency in vivo [1]: potent cannabinoid in vivo in the mouse

CCCCCCC(C)(C)c1ccc2c(c1)OC(C)(C)[C@@H]1CC=C(C)C[C@@H]21 [Compound 3, 3-(1′,1′-dimethylheptyl)-1-deoxy-Δ^8-THC]
Selectivity for the CB2 receptor ([2]; ref [28]): nearly ten-fold selectivity | Potency in vivo [1]: potent in vivo

CCCCCCC(C)(C)c1cc(OC)c2c(c1)OC(C)(C)C1CC=C(C)CC21 (stereo not shown) [Compound 4, 1-methoxy-Δ^8-THC-DMH]
Affinity for the CB1 receptor [3]: negligible affinity | Ki [2]: ~20 nM

C=C1CCC2C(C1)c1c(OC)cc(C(C)(C)CCCCCC)cc1OC2(C)C (stereo not shown) [Compound 5, 1-methoxy-Δ^9(11)-THC-DMH]
Affinity for the CB1 receptor [3]: negligible affinity | Ki [2]: ~20 nM

CCCCCCC(C)(C)c1cc(OC)c2c(c1)OC(C)(C)C1CC=C(C)CC21 (stereo not shown) [JWH-143]
Selectivity for the CB2 receptor ([4]; 1-methoxy series): 12 fold

CCCC(C)(C)c1cc(OC)c2c(c1)OC(C)(C)[C@@H]1CC=C(C)C[C@@H]21 [JWH-214]
Ki [5]: > 10000 nM | Ki ([4]; read-out: Ki (nM) CB2, mean ± SEM): 325 ± 70 nM

CCCCCCC(C)(C)c1cc(Br)c2c(c1)OC(C)(C)[C@@H]1CC=C(C)C[C@@H]21 [JWH-383, 1-Bromo-1-deoxy-3-(1′,1′-dimethylheptyl)-Δ^8-tetrahydrocannabinol]
Efficacy at the CB2 receptor [6]: full agonists

CCCCCC(C)(C)c1cc(Br)c2c(c1)OC(C)(C)[C@@H]1CC=C(C)C[C@@H]21 [JWH-393, 1-Bromo-1-deoxy-3-(1′,1′-dimethylhexyl)-Δ^8-tetrahydrocannabinol]
Efficacy at the CB2 receptor [6]: full agonists | Emax ([6]; read-out: Emax (% CP-55940), percent relative to 3 μM CP-55,940, mean ± SEM): 98.3 ± 6.8%
